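In this assay, cells in 96-well plates receive the compound at five concentrations for 48 hours. Endpoints are linearly interpolated between the surrounding concentrations. GI50 = concentration required for 50% inhibition of growth. The concentration for full growth arrest is given as TGI.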
What was measured:
Test in all cases: NCI-60 cell line screen, 48 h
HCT-116 colon = tested on: HCT-116 colon
RXF 393 renal = tested on: RXF 393 renal
A549 NSCLC = tested on: A549 NSCLC
M14 melanoma = tested on: M14 melanoma
LOX IMVI melanoma = tested on: LOX IMVI melanoma
NCI-H226 lung = tested on: NCI-H226 lung
UACC-257 melanoma = tested on: UACC-257 melanoma
SK-MEL-2 melanoma = tested on: SK-MEL-2 melanoma
MOLT-4 leukemia = tested on: MOLT-4 leukemia
OVCAR-3 ovarian = tested on: OVCAR-3 ovarian

SMILES	TGI (HCT-116 colon) [µM]	TGI (RXF 393 renal) [µM]	TGI (A549 NSCLC) [µM]	TGI (M14 melanoma) [µM]	TGI (LOX IMVI melanoma) [µM]	TGI (NCI-H226 lung) [µM]	TGI (UACC-257 melanoma) [µM]	TGI (SK-MEL-2 melanoma) [µM]	TGI (MOLT-4 leukemia) [µM]	TGI (OVCAR-3 ovarian) [µM]	GI50 (HCT-116 colon) [µM]	GI50 (A549 NSCLC) [nM]	GI50 (M14 melanoma) [µM]	GI50 (LOX IMVI melanoma) [nM]	GI50 (UACC-257 melanoma) [nM]	GI50 (SK-MEL-2 melanoma) [µM]	GI50 (MOLT-4 leukemia) [nM]	GI50 (OVCAR-3 ovarian) [nM]
COc1ccc(C2C3COc4ccccc4C3=NN2c2ccccc2)cc1 (stereo not drawn)	> 100	> 100	> 100	> 100	> 100	> 100	> 100	> 100	> 100	> 100	–	–	–	–	–	–	–	–
Cc1cn([C@@H]2O[C@H](CO[Si](C)(C)C(C)(C)C)[C@]3(O[C@H]3C(=O)NN)[C@H]2O[Si](C)(C)C(C)(C)C)c(=O)[nH]c1=O	13.3	> 25.2	16.6	20.4	10.7	27.6	27.6	17.4	6.02	15.9	–	–	–	–	–	–	–	–
Cc1ccc(/C=N/Nc2ccc3ccccc3n2)s1	24	> 100	40	58.8	36.5	> 100	> 100	> 100	> 100	28.9	–	–	–	–	–	–	–	–
CC(=O)N=C1N(/C=C2\C(=O)Oc3ccccc3C2=O)C(=O)/C(=C/c2ccc(Cl)cc2Cl)N1C	> 100	> 100	> 100	> 100	> 100	> 100	> 100	> 100	> 100	> 100	–	–	–	–	–	–	–	–
CN(C)CCCn1nc(N)c2nc3cc(Cl)ccc3nc21	> 100	> 100	> 100	47.4	> 100	> 100	59.3	> 75.7	> 100	> 100	–	–	–	–	–	–	–	–
CCCCCCCCCCCCCCCCOC[C@@H](COC(c1ccccc1)(c1ccccc1)c1ccccc1)O[P+](=S)OC (stereo partly drawn)	14.1	22.7	21	14.5	11.3	42.5	26.5	33.3	53.1	31.8	–	–	–	–	–	–	–	–
Oc1ccc(Cl)cc1CN1CCN(Cc2cc(Cl)ccc2O)C1	1.34	4.14	9.85	2.87	4.07	4.66	5.48	4.45	12	11.8	–	–	–	–	–	–	–	–
CN(c1ccccc1Cl)S(=O)(=O)c1ccc([N+](=O)[O-])cc1	> 100	> 100	> 100	> 100	> 100	> 100	> 100	> 100	> 100	> 100	–	–	–	–	–	–	–	–
O=C(N/N=C1/C(=O)c2c3ccccc3cc3cccc1c23)c1ccccc1	> 84.8	56.3	> 100	> 100	> 100	> 66.6	> 100	> 94	> 100	> 100	–	–	–	–	–	–	–	–
CCN(CC)CCNC(=O)c1cn2c(ccc3sc4ccccc4c(=O)c32)n1	20.7	24.2	21	29	> 48.9	40.6	30.1	38	11.9	26.7	–	–	–	–	–	–	–	–
O=C(N/N=C(/COc1ccc([N+](=O)[O-])cc1)N=Cc1ccncc1)c1ccncc1	> 100	> 100	> 100	> 100	> 100	> 100	> 100	> 100	> 100	> 100	–	–	–	–	–	–	–	–
CCCCCCCCCCC1OC([C@@H](O)CC[C@H](O)C2CC[C@@H](CCCCCCCC(O)CC3=CC(C)OC3=O)O2)CCC1O (stereo partly drawn)	> 25	> 18.6	> 25	> 17.5	> 12.5	> 25	> 18.4	> 18.1	> 13.9	> 23.5	6	2490	4.81	1710	2510	6.55	2760	1690
CCCCCCCCCCCCOCCCOP(=O)([O-])OCC[N+](C)(C)C	> 86.8	> 53.3	> 100	98.2	59.8	65.8	98.9	> 100	65.1	> 100	–	–	–	–	–	–	–	–
Cc1c2c(OCCN3CCCCC3)nn(C)c(=O)c2c(C)n1-c1ccccc1	> 100	> 100	> 100	33.4	51.1	> 100	42.6	33.1	> 100	> 100	–	–	–	–	–	–	–	–

Reference: PubChem BioAssay (NCI)
